Data as given in patent publication US8835472B2, “Compounds, pharmaceutical compositions and uses thereof” (Boehringer Ingelheim International GmbH, priority 2010, dated 2014).

molecular target: human ACC2 (Homo sapiens (Human), UniProt O00763); assay: ACC2 assay, spectrophotometric 384 well assay (NADH-linked, coupled lactate dehydrogenase/pyruvate kinase reaction); type: biochemical; settings: hACC2 construct lacking the 128 N-terminal amino acids; 25° C., 340 nm over 15 minutes
Method in brief: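 Kinetic NADH-linked assay (pyruvate kinase/lactate dehydrogenase coupling) with baculovirus-expressed hACC2 missing its first 128 amino acids. Started with 500 μM ATP and 200 μM each NADH and acetyl-CoA; slope followed 15 min at 25 °C, pH 7.5. No-acetyl-CoA wells define 0%; IC50 by nonlinear regression.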

Chain of human ACC2 (O00763 129-2458): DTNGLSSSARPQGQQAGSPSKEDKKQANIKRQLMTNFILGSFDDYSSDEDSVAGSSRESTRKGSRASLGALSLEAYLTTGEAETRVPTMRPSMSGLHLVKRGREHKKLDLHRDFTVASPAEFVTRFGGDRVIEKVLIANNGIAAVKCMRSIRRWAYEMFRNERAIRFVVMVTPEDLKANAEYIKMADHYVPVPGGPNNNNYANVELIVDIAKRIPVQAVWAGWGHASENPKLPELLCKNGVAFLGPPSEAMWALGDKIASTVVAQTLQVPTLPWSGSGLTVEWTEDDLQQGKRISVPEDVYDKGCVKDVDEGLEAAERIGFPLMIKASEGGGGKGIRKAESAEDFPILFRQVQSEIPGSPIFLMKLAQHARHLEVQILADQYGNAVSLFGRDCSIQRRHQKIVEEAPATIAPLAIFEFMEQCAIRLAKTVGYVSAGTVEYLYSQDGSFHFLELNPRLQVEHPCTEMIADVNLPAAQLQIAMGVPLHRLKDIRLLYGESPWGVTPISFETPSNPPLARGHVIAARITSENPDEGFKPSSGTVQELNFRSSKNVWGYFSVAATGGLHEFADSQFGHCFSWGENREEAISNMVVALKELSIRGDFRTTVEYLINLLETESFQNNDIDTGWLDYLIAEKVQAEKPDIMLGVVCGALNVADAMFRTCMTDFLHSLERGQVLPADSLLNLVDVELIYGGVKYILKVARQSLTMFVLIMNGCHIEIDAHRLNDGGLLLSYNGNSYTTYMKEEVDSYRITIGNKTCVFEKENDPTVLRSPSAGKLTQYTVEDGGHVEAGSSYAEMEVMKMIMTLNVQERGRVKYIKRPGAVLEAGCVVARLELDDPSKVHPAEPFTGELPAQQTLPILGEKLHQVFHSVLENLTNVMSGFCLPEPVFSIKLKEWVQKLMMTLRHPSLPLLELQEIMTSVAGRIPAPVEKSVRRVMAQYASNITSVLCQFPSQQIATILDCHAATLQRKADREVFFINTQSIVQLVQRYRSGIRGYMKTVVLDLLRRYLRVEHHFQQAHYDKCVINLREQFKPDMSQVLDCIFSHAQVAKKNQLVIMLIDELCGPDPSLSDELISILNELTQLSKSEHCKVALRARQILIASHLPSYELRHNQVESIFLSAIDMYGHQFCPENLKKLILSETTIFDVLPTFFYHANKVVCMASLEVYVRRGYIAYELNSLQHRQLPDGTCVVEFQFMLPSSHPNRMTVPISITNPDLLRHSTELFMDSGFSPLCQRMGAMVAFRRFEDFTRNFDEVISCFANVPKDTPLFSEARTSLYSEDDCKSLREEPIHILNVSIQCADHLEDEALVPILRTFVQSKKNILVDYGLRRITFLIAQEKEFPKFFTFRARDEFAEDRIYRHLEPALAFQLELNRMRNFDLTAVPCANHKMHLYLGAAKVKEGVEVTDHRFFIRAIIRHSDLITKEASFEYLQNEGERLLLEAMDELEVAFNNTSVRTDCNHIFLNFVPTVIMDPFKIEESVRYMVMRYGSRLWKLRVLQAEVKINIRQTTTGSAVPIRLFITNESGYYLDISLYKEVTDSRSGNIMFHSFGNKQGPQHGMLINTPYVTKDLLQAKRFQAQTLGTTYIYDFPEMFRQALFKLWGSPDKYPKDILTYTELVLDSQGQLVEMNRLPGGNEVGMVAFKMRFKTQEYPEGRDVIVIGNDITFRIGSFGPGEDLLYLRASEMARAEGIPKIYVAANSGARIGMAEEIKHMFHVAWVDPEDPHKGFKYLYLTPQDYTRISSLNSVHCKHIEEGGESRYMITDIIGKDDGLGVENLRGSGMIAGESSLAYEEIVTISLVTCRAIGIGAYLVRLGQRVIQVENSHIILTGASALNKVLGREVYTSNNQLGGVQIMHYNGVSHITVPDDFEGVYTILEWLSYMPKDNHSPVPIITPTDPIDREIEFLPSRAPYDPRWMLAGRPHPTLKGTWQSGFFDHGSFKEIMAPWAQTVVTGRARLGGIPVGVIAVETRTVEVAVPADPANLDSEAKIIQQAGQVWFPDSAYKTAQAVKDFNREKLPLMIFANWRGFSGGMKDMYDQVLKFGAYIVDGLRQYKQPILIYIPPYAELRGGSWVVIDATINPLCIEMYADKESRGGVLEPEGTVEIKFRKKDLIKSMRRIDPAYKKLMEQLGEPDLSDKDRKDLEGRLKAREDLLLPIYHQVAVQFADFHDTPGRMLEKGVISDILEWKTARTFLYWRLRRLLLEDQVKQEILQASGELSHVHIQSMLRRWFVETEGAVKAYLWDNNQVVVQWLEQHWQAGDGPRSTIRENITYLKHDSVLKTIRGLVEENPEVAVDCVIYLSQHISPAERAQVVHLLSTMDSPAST

IC50 | Compound
12200 nM | CC(=O)NC(C)Cc1ccc(C#Cc2ccc(OC3CNC3)cc2)cc1 (centres unmarked) [Example 9.10]
180 nM | CC(=O)NC(C)Cc1ccc(C#Cc2ccc(OCC3(C)CC3)cc2)cc1 (centres unmarked) [Example 9.11]
160 nM | CC(=O)NC(C)Cc1ccc(C#Cc2ccc(OC3CCOCC3)cc2)cc1 (centres unmarked) [Example 9.12]
630 nM | COCCCOc1cccc(C#Cc2ccc(CC(C)NC(C)=O)cc2)c1 (centres unmarked) [Example 9.13]
1600 nM | CC(=O)NC(C)Cc1ccc(C#Cc2cccc(OCc3cn(C)cn3)c2)cc1 (centres unmarked) [Example 9.14]
2100 nM | CC(=O)NC(C)Cc1ccc(C#Cc2cccc(OCc3c[nH]cn3)c2)cc1 (centres unmarked) [Example 9.15]
260 nM | CC(=O)NC(C)Cc1ccc(C#Cc2ccc(OCc3ccco3)cc2)cc1 (centres unmarked) [Example 9.16]
610 nM | CC(=O)NC(C)Cc1ccc(C#Cc2ccc(OCC3CCCCO3)cc2)cc1 (centres unmarked) [Example 9.17]
14900 nM | CCN(CC)CCOc1ccc(C#Cc2ccc(CC(C)NC(C)=O)cc2)cc1 (centres unmarked) [Example 9.18]
280 nM | CCOCCOc1ccc(C#Cc2ccc(CC(C)NC(C)=O)cc2)cc1 (centres unmarked) [Example 9.19]
80 nM | CC(=O)NC(C)Cc1ccc(C#Cc2ccc(OCC3CC3)cc2)cc1 (centres unmarked) [Example 9.20]
60 nM | CC(=O)NC(C)Cc1ccc(C#Cc2ccc(OCCC3CC3)cc2)cc1 (centres unmarked) [Example 9.21]
240 nM | CC(=O)NC(C)Cc1ccc(C#Cc2ccc(OCC(F)F)cc2)cc1 (centres unmarked) [Example 9.22]
400 nM | CC(=O)NC(C)Cc1ccc(C#Cc2ccc(OCCc3ccncc3)cc2)cc1 (centres unmarked) [Example 9.23]
200 nM | CC(=O)NC(C)Cc1ccc(C#Cc2ccc(OCC3CC3C)cc2)cc1 (centres unmarked) [Example 9.24]
2500 nM | CC(=O)NC(C)Cc1ccc(C#Cc2ccc(OC(C)c3ccncc3)cc2)cc1 (centres unmarked) [Example 9.25]
250 nM | CC(=O)NC(C)Cc1ccc(C#Cc2ccc(OCc3ccoc3)cc2)cc1 (centres unmarked) [Example 9.26]
640 nM | CC(=O)NC(C)Cc1ccc(C#Cc2ccc(OCc3cc(C)on3)cc2)cc1 (centres unmarked) [Example 9.27]
690 nM | CC(=O)NC(C)Cc1ccc(C#Cc2ccc(OCc3cncs3)cc2)cc1 (centres unmarked) [Example 9.28]
190 nM | CC(=O)NC(C)Cc1ccc(C#Cc2ccc(OC3CCCOC3)cc2)cc1 (centres unmarked) [Example 9.29]
230 nM | COCCCOc1ccc(C#Cc2ccc(CC(C)NC(C)=O)cc2)cc1 (centres unmarked) [Example 9.30]

IC50 | Compound
550 nM | CC(=O)NC(C)Cc1ccc(C#Cc2ccc(OCC3CCOCC3)cc2)cc1 (centres unmarked) [Example 9.31]
100 nM | CC(=O)NC(C)Cc1ccc(C#Cc2ccc(OCCC(F)(F)F)cc2)cc1 (centres unmarked) [Example 9.32]
340 nM | CC(=O)NC(C)Cc1ccc(C#Cc2ccc(OCC3(C)COC3)cc2)cc1 (centres unmarked) [Example 9.33]
6400 nM | COCCn1cncc1COc1ccc(C#Cc2ccc(CC(C)NC(C)=O)cc2)cc1 (centres unmarked) [Example 9.34]
660 nM | CCC(COC)Oc1ccc(C#Cc2ccc(CC(C)NC(C)=O)cc2)cc1 (centres unmarked) [Example 9.35]
420 nM | CC(=O)NC(C)Cc1ccc(C#Cc2ccc(OCCc3cn[nH]c3)cc2)cc1 (centres unmarked) [Example 9.36]
520 nM | CC(=O)NC(C)Cc1ccc(C#Cc2ccc(OCCn3ccnc3)cc2)cc1 (centres unmarked) [Example 9.37]
2600 nM | CC(=O)NC(C)Cc1ccc(C#Cc2ccc(OCc3c[nH]cn3)cc2)cc1 (centres unmarked) [Example 9.38]
180 nM | CC(=O)NC(C)Cc1ccc(C#Cc2ccc(OCC(C)F)cc2)cc1 (centres unmarked) [Example 9.39]
50 nM | CC(=O)NC(C)Cc1ccc(C#Cc2ccc(OCC3CC3(F)F)cc2)cc1 (centres unmarked) [Example 9.40]
500 nM | CC(=O)NC(C)Cc1ccc(C#Cc2ccc(OCc3cnco3)cc2)cc1 (centres unmarked) [Example 9.41]
630 nM | CC(=O)NC(C)Cc1ccc(C#Cc2ccc(OCc3cccnc3)cc2)cc1 (centres unmarked) [Example 9.42]
190 nM | CC(=O)NC(C)Cc1ccc(C#Cc2ccc(Oc3cncnc3)cc2)cc1 (centres unmarked) [Example 10.1, N-(1-(4-((4-(Pyrimidin-5-yloxy)phenyl)ethynyl)phenyl)propan-2-yl)acetamide]
1200 nM | CC(=O)NC(C)Cc1ccc(C#Cc2ccc(Oc3ccncc3)cc2)cc1 (centres unmarked) [Example 10.2]
1800 nM | CC(=O)NC(C)Cc1ccc(C#Cc2cccc(Oc3cncnc3)c2)cc1 (centres unmarked) [Example 10.3]
1200 nM | COCCN(C)c1nccc(C#Cc2ccc(CC(C)NC(C)=O)cc2)n1 (centres unmarked) [Example 11.1, N-(1-(4-((2-((2-Methoxyethyl)(methyl)amino)pyrimidin-4-yl)ethynyl)phenyl)propan-2-yl)acetamide]
30000 nM | CC(=O)NC(C)Cc1ccc(C#Cc2ccnc(N(C)Cc3ccncc3)n2)cc1 (centres unmarked) [Example 11.2]
2300 nM | CCCNc1nccc(C#Cc2ccc(CC(C)NC(C)=O)cc2)n1 (centres unmarked) [Example 11.3]
530 nM | CCN(C)c1nccc(C#Cc2ccc(CC(C)NC(C)=O)cc2)n1 (centres unmarked) [Example 11.4]
7200 nM | COc1ccc(Nc2nccc(C#Cc3ccc(CC(C)NC(C)=O)cc3)n2)cn1 (centres unmarked) [Example 11.5]
930 nM | CC(=O)NC(C)Cc1ccc(C#Cc2ccnc(N(C)c3ccccc3)n2)cc1 (centres unmarked) [Example 11.6]

IC50 | Compound
12700 nM | CC(=O)NC(C)Cc1ccc(C#Cc2ccnc(NC(C)C)n2)cc1 (centres unmarked) [Example 11.7]
750 nM | CC(=O)NC(C)Cc1ccc(C#Cc2ccnc(N(C)C(C)C)n2)cc1 (centres unmarked) [Example 11.8]
4000 nM | CC(=O)NC(C)Cc1ccc(C#Cc2ccnc(N(C)C3CCC(O)CC3)n2)cc1 (centres unmarked) [Example 11.9]
16700 nM | CC(=O)NC(C)Cc1ccc(C#Cc2ccnc(N3CCC(CO)C3)n2)cc1 (centres unmarked) [Example 11.10]
260 nM | CC(=O)NC(C)Cc1ccc(C#Cc2ccnc(N(C)C3CCCCC3)n2)cc1 (centres unmarked) [Example 11.11]
5600 nM | CC(=O)NC(C)Cc1ccc(C#Cc2ccnc(N3CCC3)n2)cc1 (centres unmarked) [Example 11.12]
1900 nM | CC(=O)NC(C)Cc1ccc(C#Cc2ccnc(NCC3CC3)n2)cc1 (centres unmarked) [Example 11.13]
13800 nM | CCNc1nccc(C#Cc2ccc(CC(C)NC(C)=O)cc2)n1 (centres unmarked) [Example 11.14]
330 nM | CC(=O)NC(C)Cc1ccc(C#Cc2ccnc(N(C)CC(C)C)n2)cc1 (centres unmarked) [Example 11.15]
680 nM | CC(=O)NC(C)Cc1ccc(C#Cc2ccnc(N3CCCC(F)C3)n2)cc1 (centres unmarked) [Example 11.16]
1700 nM | COC(C)CN(C)c1nccc(C#Cc2ccc(CC(C)NC(C)=O)cc2)n1 (centres unmarked) [Example 11.17]
510 nM | CC(=O)NC(C)Cc1ccc(C#Cc2ccnc(N3CCC(C(F)(F)F)CC3)n2)cc1 (centres unmarked) [Example 11.18]
5900 nM | CC(=O)NC(C)Cc1ccc(C#Cc2ccnc(NC(C)C3CC3)n2)cc1 (centres unmarked) [Example 11.19]
250 nM | CC(=O)NC(C)Cc1ccc(C#Cc2ccnc(N(C)CC3CC3)n2)cc1 (centres unmarked) [Example 11.21]
8100 nM | CC(=O)NC(C)Cc1ccc(C#Cc2ccnc(N3CC(F)(F)C3)n2)cc1 (centres unmarked) [Example 11.22]
370 nM | CC(=O)NC(C)Cc1ccc(C#Cc2ccnc(N(C)CC3CCCCC3)n2)cc1 (centres unmarked) [Example 11.23]
390 nM | CC(=O)NC(C)Cc1ccc(C#Cc2ccnc(N3CCC(C)(C)C3)n2)cc1 (centres unmarked) [Example 11.24]
1800 nM | CC#CCN(CC(C)C)c1nccc(C#Cc2ccc(CC(C)NC(C)=O)cc2)n1 (centres unmarked) [Example 11.25]
430 nM | CC(=O)NC(C)Cc1ccc(C#Cc2ccnc(N3CCC4(CCC4)C3)n2)cc1 (centres unmarked) [Example 11.26]
400 nM | CC(=O)NC(C)Cc1ccc(C#Cc2ccnc(N3CCCC(c4ccccc4)C3)n2)cc1 (centres unmarked) [Example 11.27]
380 nM | CC(=O)NC(C)Cc1ccc(C#Cc2ccnc(N3CCC4(CCCC4)C3)n2)cc1 (centres unmarked) [Example 11.28]

IC50 | Compound
4500 nM | CC(=O)NC(C)Cc1ccc(C#Cc2ccnc(N3CCC(C#N)C3)n2)cc1 (centres unmarked) [Example 11.29]
2000 nM | CC(=O)NC(C)Cc1ccc(C#Cc2ccnc(N(C)C3CCOC3)n2)cc1 (centres unmarked) [Example 11.31]
350 nM | CC(=O)NC(C)Cc1ccc(C#Cc2ccnc(N(C)CCC(C)(C)C)n2)cc1 (centres unmarked) [Example 11.32]
680 nM | CC(=O)NC(C)Cc1ccc(C#Cc2ccnc(N(C)CC(F)(F)F)n2)cc1 (centres unmarked) [Example 11.33]
13900 nM | COC1CN(c2nccc(C#Cc3ccc(CC(C)NC(C)=O)cc3)n2)C1 (centres unmarked) [Example 11.34]
2400 nM | COCC1CCCN1c1nccc(C#Cc2ccc(CC(C)NC(C)=O)cc2)n1 (centres unmarked) [Example 11.35]
690 nM | CC(=O)NC(C)Cc1ccc(C#Cc2ccnc(N3CCCC(C(F)(F)F)C3)n2)cc1 (centres unmarked) [Example 11.36]
14300 nM | CC(=O)NC(C)Cc1ccc(C#Cc2ccnc(N3CCN(C)CC3)n2)cc1 (centres unmarked) [Example 11.37]
430 nM | CC(=O)NC(C)Cc1ccc(C#Cc2ccnc(N3CCCCC3)n2)cc1 (centres unmarked) [Example 11.38]
720 nM | CC(=O)NC(C)Cc1ccc(C#Cc2ccnc(N3CCCCC3C)n2)cc1 (centres unmarked) [Example 11.39]
1100 nM | CC(=O)NC(C)Cc1ccc(C#Cc2ccnc(N3CCC(c4ccccc4)CC3)n2)cc1 (centres unmarked) [Example 11.40]
2700 nM | CC(=O)NC(C)Cc1ccc(C#Cc2ccnc(Nc3ccccc3)n2)cc1 (centres unmarked) [Example 11.41]
620 nM | CC(=O)NC(C)Cc1ccc(C#Cc2ccnc(N3CCOCC3)n2)cc1 (centres unmarked) [Example 11.42]
930 nM | CC(=O)NC(C)Cc1ccc(C#Cc2ccnc(N3CCCC3)n2)cc1 (centres unmarked) [Example 11.43]
1300 nM | CC(=O)NC(C)Cc1ccc(C#Cc2ccnc(NCC(C)C)n2)cc1 (centres unmarked) [Example 11.44]
530 nM | CC(=O)NC(C)Cc1ccc(C#Cc2ccnc(N(C)Cc3ccccc3)n2)cc1 (centres unmarked) [Example 11.45]
290 nM | CCCN(C)c1nccc(C#Cc2ccc(CC(C)NC(C)=O)cc2)n1 (centres unmarked) [Example 11.46]
7400 nM | CC(=O)NC(C)Cc1ccc(C#Cc2ccnc(N3CCN(S(C)(=O)=O)CC3)n2)cc1 (centres unmarked) [Example 11.47]
10300 nM | COC(=O)CN(C)c1nccc(C#Cc2ccc(CC(C)NC(C)=O)cc2)n1 (centres unmarked) [Example 11.48]
460 nM | CCN(CC)c1nccc(C#Cc2ccc(CC(C)NC(C)=O)cc2)n1 (centres unmarked) [Example 11.49]
